Where “and” joins values, the source holds several entries; their conditions need not be identical. Equal values may be shown once.
Legend:
[1] = system: PC3 cells; assay: Cell invasion assay (BD Biocoat Matrigel Invasion chambers, CellTiter-GLO readout); type: cell-based, human; conditions: 48 hours invasion, versus DMSO treated cells, several values = repeated assays; for Results % inhibition of invasion in invasion assays: PC3 cells incubated with compound (10 μM) for 4 days prior to assay, 10 µM; for inhibition at 10 µM: Homo sapiens, PC-3, PC3 cells incubated with compound (10 μM) for 4 days prior to assay
From the text: For determining the effectiveness of the compounds according to the invention, a model assay based on the migration of cells in a migration chamber was employed. This model is accepted in the art as providing representative data on the ability of cells to metastasize.
The PC-3 prostate cancer cell line (ATCC# CRL-1435) was maintained in RPMI-1640 medium (Invitrogen, 31870), supplemented with 10% Fetal Bovine Serum (Sigma, F7524), L-Glutamine (Invitrogen 25030-024). Cells were split once a week at a 1:10 ratio.
For cell invasion assays, PC3 cells were incubated in the presence of a compound according to the invention (10 μM) for 4 days, prior to the invasion assay. Forty thousand cells were seeded into BD Biocoat Matrigel Invasion chambers (8 micron; BD 354480) in serum-free medium. The invasion chamber was placed in a 24-well containing medium with 10% fetal calf serum as chemo-attractant. As a control, the same amount of cells was seeded in 24-well culture plates. After 48 hours incubation, cells in the invasion chamber were removed by aspiration and cleaning the inner compartment with a cotton swab. The invasion chamber was then put into CellTiter-GLO (CTG, Promega-G7571) cell viability reagent, incubated for 15 minutes, and then analyzed on a Victor3 luminometer. Cell invasion was calculated as the CTG activity on the lower part of the membrane divided by the CTG activity of the cells grown in a 24 well plate. Inhibition of cell invasion by a specific compound was estimated by comparing the amount of cell invasion of compound-treated cells versus DMSO treated cells.

[2] = system: PC-3M-Pro4luc+ cells; assay: Formation of de novo skeletal metastases in mice, whole body bioluminescence imaging; type: in vivo; conditions: treatment of mice
From the text: Treatment of mice with 4-[1-aminomethylidene]-2-benzothiazol-2-yl-5-phenyl-2,4-dihydro-pyrazol-3-one decreased the number of bone lesions and metastatic tumor burden. Cancer cells and tumor burden were monitored by whole body bioluminescence imaging. […] Such in vivo testing may lead to further selection, preference, deselection or disfavor of individual compounds for further programs for development of a compound for use in a prescription medicine. A particular compound of interest for such advanced testing is, 4-(aminomethylene)-2-(2-benzothiazolyl)-2,4-dihydro-5-(3-chlorophenyl)-3H-pyrazol-3-one.

Row | SMILES | inhibition at 10 µM [1] [%] | further results
1 | N/C=C1/C(=O)N(c2nc3ccccc3s2)N=C1c1cccc(C(F)(F)F)c1 [drawing 36] |  | Results % inhibition of invasion in invasion assays [1]: 89% and 82% and 78%
2 | N/C=C1/C(=O)N(c2nc3ccccc3s2)N=C1c1cccc(Br)c1 | 87 | Results % inhibition of invasion in invasion assays [1]: 76%
3 | CC1=NN(c2nc3ccccc3s2)C(=O)/C1=C/N1CCCCC1 | 88 | 
4 | N/C=C1/C(=O)N(c2nc3ccccc3s2)N=C1c1cccc(I)c1 | 86 | 
5 | CN/C=C1/C(=O)N(c2nc3ccccc3s2)N=C1c1cccs1 | 75 | 
6 | Cc1ccc(C2=NN(c3nc4ccccc4s3)C(=O)/C2=C/N)cc1Br | 57 | 
7 | N/C=C1/C(=O)N(c2nc3ccccc3s2)N=C1c1cccc(C(F)(F)F)c1 [drawing 33] | 91 | 
8 | Cc1ccc2nc(N3N=C(c4cccc(C(F)(F)F)c4)/C(=C\N)C3=O)sc2c1 | 67 | 
9 | C/C(NCc1ccc(Cl)c(Cl)c1)=C1\C(=O)N(c2nc3ccccc3s2)N=C1C(F)(F)F | 56 | 
10 | N/C=C1/C(=O)N(c2nc3ccccc3s2)N=C1c1ccc(Br)s1 | 57 | 
11 | COc1ccc(CN/C=C2/C(=O)N(c3nc4ccccc4s3)N=C2c2ccccc2)cc1 | 35 | 
12 | N/C=C1/C(=O)N(c2nc3ccccc3s2)N=C1c1cccc(Cl)c1 | 91 | 
13 | COc1ccc2nc(N3N=C(c4ccccc4)/C(=C\N)C3=O)sc2c1 | 70 | 
14 | N/C=C1/C(=O)N(c2nc3ccc([N+](=O)[O-])cc3s2)N=C1c1cccc(C(F)(F)F)c1 | 73 | 
15 | N/C=C1/C(=O)N(c2nc3ccccc3s2)N=C1c1ccccc1 | 52 | Results % inhibition of invasion in invasion assays [1]: 49% and 45%
16 | NC=C1C(=O)N(c2nc3ccccc3s2)N=C1c1ccccc1 [Example 2, 4-[1-Aminomethylidene]-2-benzothiazol-2-yl-5-phenyl-2,4-dihydro-pyrazol-3-one] |  | metastatic tumor burden [2]: decreased; number of bone lesions [2]: decreased
17 | N/C=C1/C(=O)N(c2nc3ccccc3s2)N=C1c1cc2ccccc2s1 | 76 | 
18 | N/C=C1/C(=O)N(c2nc3ccc(Cl)cc3s2)N=C1c1ccccc1 | 89 | 

Source: patent US10071987B2, “Aminomethylene pyrazolones with therapeutic activity” (Compound Handling B.V., priority 2012, dated 2018)
